Test results as given in paper PMC9151520 (Archives of Toxicology, 2022).
“And” between values parts separate entries of the source, which are not always exact repeats. Equal values may be shown once. Where a name gives a salt, the structure may show the parent alone. Read-outs that look alike come from different tables or passages of the source.

Experiments:
[1] = system: p53 signaling (p53RE-bla HCT-116 cells)
[2] = system: p53 signaling (p53RE-bla HCT-116 cells); experiment: cells; format: cell-based; conditions: Homo sapiens
p53RE-bla HCT-116 cells [3] = system: p53RE-bla HCT-116 cells
[4] = system: p53 signaling (p53RE-bla HCT-116 cells); remark: listed apart in the source
p53RE-bla HCT-116 cells [5] = experiment: cells; conditions: Homo sapiens
[6] = HCT-116, read-out: p53 activation EC50, cherry pick confirmation
[7] = HCT-116, read-out: p53 activation EC50, primary screening
[8] = HCT-116, read-out: p53 activation efficacy, cherry pick confirmation
[9] = HCT-116, read-out: p53 activation efficacy, primary screening
[10] = HCT-116, read-out: EC50, p53 activation, cherry pick confirmation
[11] = HCT-116, read-out: EC50, p53 activation, primary screening
[12] = HCT-116, read-out: Efficacy, p53 activation, cherry pick confirmation
[13] = HCT-116, read-out: Efficacy, p53 activation, primary screening
[14] = HCT-116, read-out: EC50, viability, cherry pick confirmation
[15] = HCT-116, read-out: Viability EC50, primary screening

Row | SMILES | p53 activation EC50, cherry pick confirmation [1] | p53 activation EC50, primary screening [1] | p53 activation efficacy, cherry pick confirmation [1] | p53 activation efficacy, primary screening [1] | EC50 [2, 6] [µM] | EC50 [2, 7] [µM] | Emax [2, 8] [%] | Emax [2, 9] [%] | Viability EC50, primary screening (p53RE-bla HCT-116 cells [3]) | p53 activation EC50, cherry pick confirmation [4] | p53 activation EC50, primary screening [4] | p53 activation efficacy, cherry pick confirmation [4] | p53 activation efficacy, primary screening [4] | EC50, p53 activation, cherry pick confirmation [1] | EC50, p53 activation, primary screening [1] | Efficacy, p53 activation, cherry pick confirmation [1] | Efficacy, p53 activation, primary screening [1] | EC50 [2, 10] [µM] | EC50 [2, 11] [µM] | Emax [2, 12] [%] | also measured
1 | CCOC(=O)C1(c2ccccc2)CCN(CCC(C#N)(c2ccccc2)c2ccccc2)CC1 [Diphenoxylate hydrochloride] | inactive | inactive | inactive | inactive | 8.23 | 6.87 | 152 | 77.1 | inactive | inactive | inactive | inactive | inactive | – | – | – | – | – | – | – | Viability EC50, cherry pick confirmation (p53RE-bla HCT-116 cells [3]): inactive; Viability efficacy, primary screening (p53RE-bla HCT-116 cells [3]): inactive; EC50 (p53RE-bla HCT-116 cells [5]; HCT-116, read-out: Viability EC50, cherry pick confirmation): 3.16 µM
2 | Oc1cc(Cl)c(Cl)c(Cl)c1 [3,4,5-Trichlorophenol] | – | – | – | – | – | – | – | – | – | – | – | – | – | inactive | inactive | inactive | inactive | 48.4 | 40.3 | 40.3 | Emax [2, 13]: 25.7%; EC50, viability, cherry pick confirmation (p53RE-bla HCT-116 cells [3]): inactive; EC50, viability, primary screening (p53RE-bla HCT-116 cells [3]): inactive; Efficacy, viability, primary screening (p53RE-bla HCT-116 cells [3]): inactive; EC50, p53 activation, cherry pick confirmation [4]: inactive; EC50, p53 activation, primary screening [4]: inactive; Efficacy, p53 activation, cherry pick confirmation [4]: inactive; Efficacy, p53 activation, primary screening [4]: inactive; EC50 (p53RE-bla HCT-116 cells [5]; [14]): 27.4 µM
3 | CC(C)C[C@H](NC(=O)[C@H](CCc1ccccc1)NC(=O)CN1CCOCC1)C(=O)N[C@@H](Cc1ccccc1)C(=O)N[C@@H](CC(C)C)C(=O)[C@@]1(C)CO1 [Carfilzomib] | inactive | inactive | inactive | inactive | 0.0597 | 0.142 | 111 | 82 | inactive | inactive | inactive | inactive | inactive | – | – | – | – | – | – | – | Viability EC50, cherry pick confirmation (p53RE-bla HCT-116 cells [3]): inactive; EC50 (p53RE-bla HCT-116 cells [5]; [15]): 0.75 µM
4 | CC[C@@]1(O)C(=O)OCc2c1cc1n(c2=O)Cc2cc3c(CN(C)C)c(O)ccc3nc2-1 [Topotecan hydrochloride] | – | – | – | – | – | – | – | – | – | – | – | – | – | inactive | inactive | inactive | inactive | 0.589 | 0.0771 | 179 | Emax [2, 13]: 69.5%; EC50, viability, cherry pick confirmation (p53RE-bla HCT-116 cells [3]): inactive; EC50, viability, primary screening (p53RE-bla HCT-116 cells [3]): inactive; Efficacy, viability, primary screening (p53RE-bla HCT-116 cells [3]): inactive; EC50, p53 activation, cherry pick confirmation [4]: inactive; EC50, p53 activation, primary screening [4]: inactive; Efficacy, p53 activation, cherry pick confirmation [4]: inactive; Efficacy, p53 activation, primary screening [4]: inactive; EC50 (p53RE-bla HCT-116 cells [5]; [14]): 3.98 µM
5 | Oc1ccc(Cl)cc1Sc1cc(Cl)ccc1O [Fenticlor] | inactive | inactive | inactive | inactive | 18.1 | 34.2 | 54.9 | 52.2 | inactive | inactive | inactive | inactive | inactive | – | – | – | – | – | – | – | EC50 (p53RE-bla HCT-116 cells [3]; read-out: Viability EC50, primary screening): 18.7 µM; EC50 (p53RE-bla HCT-116 cells [5]; [15]): 27.7 µM
6 | CN(C)c1ccc(C(=C2C=CC(=[N+](C)C)C=C2)c2ccc(N(C)C)cc2)cc1 [Gentian Violet] | – | – | – | – | – | – | – | – | – | – | – | – | – | inactive | inactive | inactive | inactive | 23.6 | 51.1 | 48.7 | Emax [2, 13]: 65.5%; EC50 (p53RE-bla HCT-116 cells [3]; read-out: EC50, viability, cherry pick confirmation): 27.6 µM and 21.3 µM; EC50 (p53RE-bla HCT-116 cells [3]; read-out: EC50, viability, primary screening): 16 µM and 24.9 µM; EC50, p53 activation, cherry pick confirmation [4]: inactive; EC50, p53 activation, primary screening [4]: inactive; Efficacy, p53 activation, cherry pick confirmation [4]: inactive; Efficacy, p53 activation, primary screening [4]: inactive; EC50 (p53RE-bla HCT-116 cells [5]; [14]): 22 µM; EC50 (p53RE-bla HCT-116 cells [5]; HCT-116, read-out: EC50, viability, primary screening): 29.2 µM
